In the NIST ThermoML archive (doi:10.1021/je034102r):

Experiment: molar heat capacity at constant pressure
Details: 101.33 kPa, Liquid, heat bridge-scanning calorimeter

CCCCn1cc[n+](C)c1.F[P-](F)(F)(F)(F)F [1-butyl-3-methylimidazolium hexafluorophosphate]
Details | molar heat capacity at constant pressure [J/K/mol]
326.94 K | 426.56
327.06 K | 426.56
327.19 K | 426.56
327.31 K | 426.56
327.44 K | 426.84
327.72 K | 427.13
327.85 K | 427.13
327.98 K | 427.13
328.1 K | 427.13
328.23 K | 427.41
328.35 K | 427.41
328.48 K | 427.41
328.61 K | 427.41
328.73 K | 427.41
328.99 K | 427.69
329.11 K | 427.69
329.24 K | 427.98
329.37 K | 427.69
329.49 K | 427.98
329.62 K | 427.98
329.74 K | 428.26
329.87 K | 428.26
330 K | 428.26
330.12 K | 427.98
330.25 K | 428.26
330.52 K | 428.55
330.65 K | 428.55
330.77 K | 428.55
330.9 K | 428.55
331.03 K | 428.55
331.15 K | 428.55
331.28 K | 428.83
331.4 K | 429.12
331.53 K | 429.12
331.79 K | 429.12
331.91 K | 429.12
332.04 K | 429.12
332.16 K | 429.12
332.29 K | 429.12
332.42 K | 429.4
332.54 K | 429.4
332.67 K | 429.4
332.79 K | 429.4
332.92 K | 429.4
333.05 K | 429.4
333.32 K | 429.68
333.45 K | 429.68
333.58 K | 429.97
333.71 K | 429.97
333.83 K | 429.97
333.96 K | 429.97
334.08 K | 429.97
334.21 K | 429.97
334.34 K | 429.97
334.59 K | 430.25
334.72 K | 430.25
334.84 K | 430.25
334.97 K | 430.25
335.1 K | 430.54
335.22 K | 430.54
335.35 K | 430.54
335.47 K | 430.54
335.6 K | 430.82
335.73 K | 430.82
335.85 K | 430.82
336.12 K | 431.1
336.25 K | 430.82
336.38 K | 430.82
336.5 K | 431.1
336.63 K | 431.1
336.75 K | 431.1
336.88 K | 431.39
337.01 K | 431.39
337.13 K | 431.39
337.39 K | 431.39
337.51 K | 431.39
337.64 K | 431.39
337.76 K | 431.39
337.89 K | 431.67
338.02 K | 431.67
338.14 K | 431.96
338.27 K | 431.96
338.39 K | 431.96
338.52 K | 432.24
338.64 K | 432.24
338.91 K | 432.24
339.04 K | 432.53
339.17 K | 432.53
339.29 K | 432.53
339.43 K | 432.81
339.55 K | 432.81
339.68 K | 432.81
339.8 K | 432.81
339.93 K | 433.09
340.19 K | 433.09
340.31 K | 433.38
340.44 K | 433.38
340.56 K | 433.38
340.69 K | 433.38
340.82 K | 433.66
340.94 K | 433.66
341.07 K | 433.66
341.19 K | 433.66
341.32 K | 433.95
341.45 K | 433.95
341.72 K | 434.23
341.85 K | 434.23
341.97 K | 434.23
342.1 K | 434.23
342.22 K | 434.23
342.35 K | 434.51
342.48 K | 434.51
342.6 K | 434.51
342.73 K | 434.51
343 K | 434.8
343.13 K | 434.8
343.25 K | 434.8
343.38 K | 435.08
343.51 K | 435.08
343.63 K | 435.08
343.76 K | 435.37
343.88 K | 435.37
344.01 K | 435.37
344.13 K | 435.37
344.26 K | 435.65
344.53 K | 435.94
344.66 K | 435.65
344.78 K | 435.94
344.91 K | 435.94
345.03 K | 435.94
345.16 K | 435.94
345.29 K | 436.22
345.42 K | 436.5
345.55 K | 436.22
345.82 K | 436.79
345.95 K | 436.5
346.07 K | 437.07
346.2 K | 436.79
346.32 K | 437.07
346.45 K | 437.07
346.57 K | 437.07
346.7 K | 437.07
346.82 K | 437.36
346.95 K | 437.36
347.08 K | 437.64
347.35 K | 437.36
347.47 K | 437.64
347.6 K | 437.64
347.72 K | 437.64
347.85 K | 437.93
347.97 K | 437.93
348.1 K | 437.93
348.22 K | 437.93
348.35 K | 438.21
348.63 K | 438.21
348.76 K | 438.21
348.88 K | 438.49
349.01 K | 438.21
349.13 K | 438.49
349.26 K | 438.49
349.38 K | 438.78
349.51 K | 438.78
349.63 K | 438.78
349.76 K | 438.78
349.88 K | 439.06
350.19 K | 439.35
350.32 K | 439.35
350.44 K | 439.35
350.57 K | 439.35
350.69 K | 439.63
350.82 K | 439.63
350.94 K | 439.63
351.07 K | 439.63
351.21 K | 439.35
351.49 K | 439.91
351.61 K | 439.63
351.74 K | 439.91
351.86 K | 440.2
351.99 K | 440.2
352.11 K | 440.2
352.24 K | 440.2
352.36 K | 440.48
352.49 K | 440.48
352.61 K | 440.48
352.74 K | 440.77
353.01 K | 440.77
353.13 K | 440.77
353.26 K | 441.05
353.38 K | 441.05
353.51 K | 441.34
353.64 K | 441.34
